Assay results: patent publication US5599806A, “Hydrazino and hydroxyamino-14-β-hydroxyandrostane derivatives active on the cardiovascular system processes for their preparation and pharmaceutical compositions containing same” (Sigma-Tau Industrie Farmaceutiche Riunite S.p.A., priority 1994, dated 1997)
Read-outs that look alike come from different tables or passages of the source.

Key:
[1] = tested on: Na^+, K^+ -ATPase; conditions: reported in literature / other filings; cited from earlier work
[2] = reported in literature; cited from earlier work
[3] = target: T1, purified Na^+, K^+ -ATPase (Canis lupus familiaris, UniProt P50997); assay: inhibition of the activity of the purified Na^+, K^+ -ATPase (hydrolysis of ^32 P-ATP); assay type: biochemical
T1 construct: from tissue
Source text: To test the affinity for the receptor site of the Na^+, K^+ -ATPase and the inhibition of the activity of the enzyme, the following tests were used:
b) inhibition of the activity of the purified Na^+, K^+ -ATPase measured as % of hydrolysis of ^32 P-ATP in the presence and in the absence of the tested compound (Doucet A. et al., Am. J. Physiol., 1986, 251, F851)

[4] = tested on: spontaneous hypertensive rats (MHS); assay: effect of 5 week-treatment in spontaneous hypertensive rats (MHS) on the development of hypertension (SBP and HR, tail cuff method); assay type: in vivo, rat; conditions: 5 weeks, in Methocel 0.5% w/v; for SBP: controls 170 +/- 5.5; for HR: controls 378 +/- 12.0
Method: Systolic blood pressure (SBP) and hear rate (HR) were measured, by the tail cuff method, in young prehypertensive male rats (MHS or SHR) strains before the development of hypertension (4 weeks of age) for recording the basal values of SBP. Groups of 7 rats were formed and subdivided in control and treated groups.
The compound, suspended in Methocel 0.5% (w/v), was orally given daily for at least 5 weeks to the treated groups. The control group received only Methocel.
SBP and HR were measured weekly 6 and 24 hrs after treatment. After 5 weeks of treatment, when hypertension was fully developed in the control group (9 weeks of age), washout was started for at least one week, to verify whether the treatment maintained blood pressure low or reestablished the basal values.
(Takeda K. et al., Japan J. Pharmacol., 1979, 29, 171; Takeda K. et al. Japan J. Pharmacol., 1982, 32, 283; Richer C. et al. Eur. J. Pharmacol, 1978, 47,393).

[5] = target: Na^+, K^+ -ATPase receptor; assay: displacement of the specific ^3 H-ouabain binding from the Na^+, K^+ -ATPase receptor; conditions: ^3 H-ouabain displacement, purified Na^+
Source text: a) displacement of the specific ^3 H-ouabain binding from the Na^+, K^+ -ATPase receptor purified according to Jorghensen (Jorghensen P., BBA, 1974, 356, 36) and Erdmann (Erdmann E. et al., Arzneim. Forsh., 1984, 34, 1314);

SMILES: C[C@]12CC[C@H](O)C[C@H]1CC[C@@H]1[C@@H]2CC[C@]2(C)C(=NNC(=N)N)CC[C@]12O [17-guanidinoimino-5β-androstane-3β,14β-diol]
- inhibition of Na^+, K^+ -ATPase [1]: weak inhibitors of Na^+, K^+ -ATPase

SMILES: C[C@]12CC[C@H](O)C[C@H]1CC[C@@H]1[C@@H]2CC[C@]2(C)[C@@H](C=NNC(=N)N)CC[C@]12O [17β-guanidinoiminomethyl-5β-androstane-3,β,14β-diol]
- positive inotropic activity [2]: weak positive inotropic agents
- inhibition of Na^+, K^+ -ATPase [1]: weak inhibitors of Na^+, K^+ -ATPase

SMILES: CN(C)CCONC[C@H]1CC[C@]2(O)[C@@H]3CC[C@@H]4C[C@@H](O)CC[C@]4(C)[C@H]3CC[C@]12C [Comp. I-am, 17β-(2-Dimethylaminoethoxyamino)methyl-5β-androstane-3β,14β-diol]
- IC50 ([3]; hydrolysis of ^32 P-ATP, purified Na^+, K^+ -ATPase, read-out: Inhibitory Activity (-log IC50) (converted)): 50.1 µM
- SBP ([4]; 1 mg/Kg/os daily): 152 +/- 5.3 mm Hg
- HR ([4]; 1 mg/Kg/os daily): 365 +/- 10.1 beats/min.
- SBP ([4]; 10 mg/Kg/os daily): 149 +/- 4.5 mm Hg
- HR ([4]; 10 mg/Kg/os daily): 370 +/- 14.7 beats/min.
- Binding ^3 H-Ouab. Displacement (-log IC50) [5]: 6.1

SMILES: CN(C)CCONC[C@H]1CC[C@]2(O)[C@@H]3CC[C@@H]4C[C@@H](OCCCN)CC[C@]4(C)[C@H]3CC[C@]12C [Comp. I-bb, 3β-(3-Aminopropoxy)-17β-(2-dimethylaminoethoxyamino)methyl-5β-androstane-14β-ol]
- IC50 [3]: 31.6 µM
- SBP ([4]; 1 mg/Kg/os daily): 153 +/- 6.2 mm Hg
- HR ([4]; 1 mg/Kg/os daily): 367 +/- 14.3 beats/min.
- SBP ([4]; 10 mg/Kg/os daily): 150 +/- 4.2 mm Hg
- HR ([4]; 10 mg/Kg/os daily): 375 +/- 12.1 beats/min.
- Binding ^3 H-Ouab. Displacement (-log IC50) [5]: 6.3
